# Test system: Klebsiella isolates
# Assay: Antibiotic susceptibility of Klebsiella clinical isolates per 7-SNP clonotype (Lookup Table 1; disk diffusion)
# Assay type: cell-based, Klebsiella spp.
# Conditions: CT 000
# Experimental: In further embodiments, the Lookup Table is Lookup Table 1. The information contained in Lookup Table 1 below was obtained from urine specimens from patients with Klebsiella infections from several clinics within different regions of the United States. CT=clonotypes determined using a 7-SNP combination: phoE54; rpoB130; infB279; mdh315; phoE336; phoE354; and mdh429.
# Next, antibiotic resistance was determined for all 387 Klebsiella isolates in the discovery set. Antibiotic testing was carried out according to the standard disk diffusion method as described in the Clinical and Laboratory Standards Institute (M100 Performance Standards for Antimicrobial Susceptibility Testing, 27th Edition, 2017). […] Since almost all Klebsiella isolates are known to be resistant to AMP and sensitive to IMI, TET is not used for treatment of urinary tract infections, and ESBL production is partially reflected in resistance to CTR, these antibiotics were not included for further analysis.
# To aid in clinical decision-making and to translate clonotype information to treatment selection, Lookup Table 1 was generated. […] The information contained in Lookup Table 1 was obtained from urine specimens from patients with Klebsiella infections from several clinics within different regions of the United States. Indications of allowance or non-recommendation were determined based on a 20% resistance threshold to the indicated antibiotic; i.e., the antibiotic is recommended when more than 80% of the tested isolates within the indicated clonotype were susceptible to the indicated antibiotic, and was cautioned against when less than 80% of the isolates were susceptible to the antibiotic.
row,SMILES,"susceptibility, %"
1,"CN(C)[C@@H]1C(O)=C(C(N)=O)C(=O)[C@@]2(O)C(O)=C3C(=O)c4c(O)cccc4[C@@](C)(O)[C@H]3C[C@@H]12 [TET, tetracycline]",93%

# Same assay, conditions: CT 001
row,SMILES,"susceptibility, %"
1,"CN(C)[C@@H]1C(O)=C(C(N)=O)C(=O)[C@@]2(O)C(O)=C3C(=O)c4c(O)cccc4[C@@](C)(O)[C@H]3C[C@@H]12 [TET, tetracycline]",0%

# Same assay, conditions: CT 010
row,SMILES,"susceptibility, %"
1,"CN(C)[C@@H]1C(O)=C(C(N)=O)C(=O)[C@@]2(O)C(O)=C3C(=O)c4c(O)cccc4[C@@](C)(O)[C@H]3C[C@@H]12 [TET, tetracycline]",67%

# Same assay, conditions: CT 011
row,SMILES,"susceptibility, %"
1,"CN(C)[C@@H]1C(O)=C(C(N)=O)C(=O)[C@@]2(O)C(O)=C3C(=O)c4c(O)cccc4[C@@](C)(O)[C@H]3C[C@@H]12 [TET, tetracycline]",73%

# Same assay, conditions: CT 031
row,SMILES,"susceptibility, %"
1,"CN(C)[C@@H]1C(O)=C(C(N)=O)C(=O)[C@@]2(O)C(O)=C3C(=O)c4c(O)cccc4[C@@](C)(O)[C@H]3C[C@@H]12 [TET, tetracycline]",67%

# Same assay, conditions: CT 040
row,SMILES,"susceptibility, %"
1,"CN(C)[C@@H]1C(O)=C(C(N)=O)C(=O)[C@@]2(O)C(O)=C3C(=O)c4c(O)cccc4[C@@](C)(O)[C@H]3C[C@@H]12 [TET, tetracycline]",50%

# Same assay, conditions: CT 050
row,SMILES,"susceptibility, %"
1,"CN(C)[C@@H]1C(O)=C(C(N)=O)C(=O)[C@@]2(O)C(O)=C3C(=O)c4c(O)cccc4[C@@](C)(O)[C@H]3C[C@@H]12 [TET, tetracycline]",76%

# Same assay, conditions: CT 051
row,SMILES,"susceptibility, %"
1,"CN(C)[C@@H]1C(O)=C(C(N)=O)C(=O)[C@@]2(O)C(O)=C3C(=O)c4c(O)cccc4[C@@](C)(O)[C@H]3C[C@@H]12 [TET, tetracycline]",85%

# Same assay, conditions: CT 071
row,SMILES,"susceptibility, %"
1,"CN(C)[C@@H]1C(O)=C(C(N)=O)C(=O)[C@@]2(O)C(O)=C3C(=O)c4c(O)cccc4[C@@](C)(O)[C@H]3C[C@@H]12 [TET, tetracycline]",80%

# Same assay, conditions: CT 100
row,SMILES,"susceptibility, %"
1,"CN(C)[C@@H]1C(O)=C(C(N)=O)C(=O)[C@@]2(O)C(O)=C3C(=O)c4c(O)cccc4[C@@](C)(O)[C@H]3C[C@@H]12 [TET, tetracycline]",100%

# Same assay, conditions: CT 110
row,SMILES,"susceptibility, %"
1,"CN(C)[C@@H]1C(O)=C(C(N)=O)C(=O)[C@@]2(O)C(O)=C3C(=O)c4c(O)cccc4[C@@](C)(O)[C@H]3C[C@@H]12 [TET, tetracycline]",100%

# Same assay, conditions: CT 111
row,SMILES,"susceptibility, %"
1,"CN(C)[C@@H]1C(O)=C(C(N)=O)C(=O)[C@@]2(O)C(O)=C3C(=O)c4c(O)cccc4[C@@](C)(O)[C@H]3C[C@@H]12 [TET, tetracycline]",90%

# Same assay, conditions: CT 130
row,SMILES,"susceptibility, %"
1,"CN(C)[C@@H]1C(O)=C(C(N)=O)C(=O)[C@@]2(O)C(O)=C3C(=O)c4c(O)cccc4[C@@](C)(O)[C@H]3C[C@@H]12 [TET, tetracycline]",88%

# Same assay, conditions: CT 131
row,SMILES,"susceptibility, %"
1,"CN(C)[C@@H]1C(O)=C(C(N)=O)C(=O)[C@@]2(O)C(O)=C3C(=O)c4c(O)cccc4[C@@](C)(O)[C@H]3C[C@@H]12 [TET, tetracycline]",52%

# Same assay, conditions: CT 141
row,SMILES,"susceptibility, %"
1,"CN(C)[C@@H]1C(O)=C(C(N)=O)C(=O)[C@@]2(O)C(O)=C3C(=O)c4c(O)cccc4[C@@](C)(O)[C@H]3C[C@@H]12 [TET, tetracycline]",100%

# Same assay, conditions: CT 150
row,SMILES,"susceptibility, %"
1,"CN(C)[C@@H]1C(O)=C(C(N)=O)C(=O)[C@@]2(O)C(O)=C3C(=O)c4c(O)cccc4[C@@](C)(O)[C@H]3C[C@@H]12 [TET, tetracycline]",80%

# Same assay, conditions: CT 151
row,SMILES,"susceptibility, %"
1,"CN(C)[C@@H]1C(O)=C(C(N)=O)C(=O)[C@@]2(O)C(O)=C3C(=O)c4c(O)cccc4[C@@](C)(O)[C@H]3C[C@@H]12 [TET, tetracycline]",75%

# Same assay, conditions: CT 160
row,SMILES,"susceptibility, %"
1,"CN(C)[C@@H]1C(O)=C(C(N)=O)C(=O)[C@@]2(O)C(O)=C3C(=O)c4c(O)cccc4[C@@](C)(O)[C@H]3C[C@@H]12 [TET, tetracycline]",100%

# Same assay, conditions: CT 170
row,SMILES,"susceptibility, %"
1,"CN(C)[C@@H]1C(O)=C(C(N)=O)C(=O)[C@@]2(O)C(O)=C3C(=O)c4c(O)cccc4[C@@](C)(O)[C@H]3C[C@@H]12 [TET, tetracycline]",91%

# Same assay, conditions: CT 171
row,SMILES,"susceptibility, %"
1,"CN(C)[C@@H]1C(O)=C(C(N)=O)C(=O)[C@@]2(O)C(O)=C3C(=O)c4c(O)cccc4[C@@](C)(O)[C@H]3C[C@@H]12 [TET, tetracycline]",81%

# Same assay, conditions: CT 200
row,SMILES,"susceptibility, %"
1,"CN(C)[C@@H]1C(O)=C(C(N)=O)C(=O)[C@@]2(O)C(O)=C3C(=O)c4c(O)cccc4[C@@](C)(O)[C@H]3C[C@@H]12 [TET, tetracycline]",83%

# Same assay, conditions: CT 201
row,SMILES,"susceptibility, %"
1,"CN(C)[C@@H]1C(O)=C(C(N)=O)C(=O)[C@@]2(O)C(O)=C3C(=O)c4c(O)cccc4[C@@](C)(O)[C@H]3C[C@@H]12 [TET, tetracycline]",83%

# Same assay, conditions: CT 210
row,SMILES,"susceptibility, %"
1,"CN(C)[C@@H]1C(O)=C(C(N)=O)C(=O)[C@@]2(O)C(O)=C3C(=O)c4c(O)cccc4[C@@](C)(O)[C@H]3C[C@@H]12 [TET, tetracycline]",76%

# Same assay, conditions: CT 211
row,SMILES,"susceptibility, %"
1,"CN(C)[C@@H]1C(O)=C(C(N)=O)C(=O)[C@@]2(O)C(O)=C3C(=O)c4c(O)cccc4[C@@](C)(O)[C@H]3C[C@@H]12 [TET, tetracycline]",88%

# Same assay, conditions: CT 230
row,SMILES,"susceptibility, %"
1,"CN(C)[C@@H]1C(O)=C(C(N)=O)C(=O)[C@@]2(O)C(O)=C3C(=O)c4c(O)cccc4[C@@](C)(O)[C@H]3C[C@@H]12 [TET, tetracycline]",0%

# Same assay, conditions: CT 231
row,SMILES,"susceptibility, %"
1,"CN(C)[C@@H]1C(O)=C(C(N)=O)C(=O)[C@@]2(O)C(O)=C3C(=O)c4c(O)cccc4[C@@](C)(O)[C@H]3C[C@@H]12 [TET, tetracycline]",100%

# Same assay, conditions: CT 240
row,SMILES,"susceptibility, %"
1,"CN(C)[C@@H]1C(O)=C(C(N)=O)C(=O)[C@@]2(O)C(O)=C3C(=O)c4c(O)cccc4[C@@](C)(O)[C@H]3C[C@@H]12 [TET, tetracycline]",100%

# Same assay, conditions: CT 241
row,SMILES,"susceptibility, %"
1,"CN(C)[C@@H]1C(O)=C(C(N)=O)C(=O)[C@@]2(O)C(O)=C3C(=O)c4c(O)cccc4[C@@](C)(O)[C@H]3C[C@@H]12 [TET, tetracycline]",100%

# Same assay, conditions: CT 250
row,SMILES,"susceptibility, %"
1,"CN(C)[C@@H]1C(O)=C(C(N)=O)C(=O)[C@@]2(O)C(O)=C3C(=O)c4c(O)cccc4[C@@](C)(O)[C@H]3C[C@@H]12 [TET, tetracycline]",85%

# Same assay, conditions: CT 251
row,SMILES,"susceptibility, %"
1,"CN(C)[C@@H]1C(O)=C(C(N)=O)C(=O)[C@@]2(O)C(O)=C3C(=O)c4c(O)cccc4[C@@](C)(O)[C@H]3C[C@@H]12 [TET, tetracycline]",83%

# Same assay, conditions: CT 271
row,SMILES,"susceptibility, %"
1,"CN(C)[C@@H]1C(O)=C(C(N)=O)C(=O)[C@@]2(O)C(O)=C3C(=O)c4c(O)cccc4[C@@](C)(O)[C@H]3C[C@@H]12 [TET, tetracycline]",79%

# Same assay, conditions: CT 300
row,SMILES,"susceptibility, %"
1,"CN(C)[C@@H]1C(O)=C(C(N)=O)C(=O)[C@@]2(O)C(O)=C3C(=O)c4c(O)cccc4[C@@](C)(O)[C@H]3C[C@@H]12 [TET, tetracycline]",0%

# From patent US20210214758A1, “METHODS AND TOOLS FOR DETERMINING CLONAL RELATEDNESS AND PREDICTING CLONAL TRAITS” (priority 2018, published 2021)
